A melting point compilation (Tetko et al.; mined from patent text by program, amines drawn as free bases though some values may be those of a salt)

Row | SMILES | melting point [°C]
1 | C=Cc1cc(OC)cc2cc(-c3ccc(OC)cc3)oc12 | 182 to 184
2 | N#CC1=C(C2CCN(C(=N)N)CC2)Nc2n[nH]cc2C1c1cccc2nonc12 (centres undefined) | > 270
3 | CCC1(c2cccs2)OCC(=O)Nc2ccc(-c3coc(C#N)c3)cc21 (centres undefined) | 99 to 100
4 | CC(C)(C)n1c(=O)n(-c2ccnc(NC(=O)NCc3ccccn3)c2)c2ccccc21 | 164 to 165
5 | CNC(=NCCSCc1cc(CN2CCCCC2)ccn1)NC#N | 79 to 81
6 | COc1cccc(CC(N)C(=O)O)c1OCCc1ccccc1 (racemic) | 180 to 182
7 | COC(=O)c1ncoc1CCNC(=O)OCc1ccccc1 | 68 to 70
8 | CC(=O)N1CCN(Cc2cnc(-c3cc4cccc(N(C)S(=O)(=O)c5cccs5)c4[nH]3)s2)CC1 | 177 to 178
9 | COc1cc(CCl)ccc1C12CC3CC(CC(C3)C1)C2 | 77 to 78
10 | COC(=O)/C=C/c1ccc(C)cc1Br | 70
11 | C#Cc1cccc(Nc2ncnc3[nH]cc(-c4cccc([N+](=O)[O-])c4)c23)c1 | 189 to 190
12 | COC(=O)COc1ccc(C(=O)CN(C)C(=O)OCc2ccccc2)cc1OCC(=O)OC | 56 to 59
13 | COC(=O)c1cncc(OCc2nc(-c3ccccc3)oc2C)c1 | 119 to 120
14 | O=C(OCc1cc(-c2ccccc2)c(=O)n2c1-c1sccc1CN2)N1CCOCC1 | 207 to 210
15 | CNC(=O)[C@H](C)C[C@H](O)[C@H](CC1CCCCC1)NC(=O)[C@H](Cc1cscn1)NC(=O)OC(C)(C)C | 158 to 160
16 | CCOC(=O)c1cc2c3ccccc3n(CCCc3ccccc3)c2cn1 | 140 to 142
17 | NCCCC(=O)N1CCC(c2[nH]nc3c2C(=O)c2c(NC(=O)NN4CCOCC4)cccc2-3)CC1 | 172 to 174
18 | Cc1cccc2c1nc(COc1ccc(Cl)cc1)n2CCC(Cc1ccccc1)C(=O)N1CCCCC1 (centres undefined) | 93.5 to 95
19 | CSc1nc(=O)n(-c2ccccc2F)c(=O)[nH]1 | 196 to 199
20 | Nn1c(-c2ccccc2)nc2cc(C(F)(F)F)ccc21 | 200 to 203
21 | C[C@H](Nc1nc(C(N)=O)nc(Cl)c1-c1c(F)cc(F)cc1F)C(F)(F)F | 157 to 162
22 | c1ccc(Sc2cc(Sc3ccccc3)ncn2)cc1 | 117
23 | CCCCCCNC(=O)Oc1ccc2oc3ccccc3c2c1 | 109 to 110
24 | COc1cc(CC#N)c(CCNC(=O)C(F)(F)F)cc1OC | 131
25 | CC(=O)NCCC1CCc2ccc3nc(C)oc3c21 (centres undefined) | 93 to 95

Row | SMILES | melting point [°C]
26 | CCOC(=O)N(C(=O)N1CC(c2ccc(Cl)cn2)C(c2ccc(F)cc2)=N1)c1ccc(OC(F)(F)F)cc1 (centres undefined) | 160 to 161
27 | S=C(NCn1nnc2ccccc21)NCn1nnc2ccccc21 | 205 to 206
28 | CN(Cc1ccc(NC(=O)C2=Cc3cc(-c4ccc(N5CCCC5)cc4)ccc3OCC2)cc1)C1CCOCC1 | 210 to 211
29 | O=C(COc1ccc([N+](=O)[O-])cc1)OCCO | 73.5 to 75.5
30 | Cc1ccc2c(c1)N(CC(=O)c1ccccc1C)C(=O)C(NC(=O)Nc1cccc(C(=O)O)c1)CN2C(=O)c1cccs1 (centres undefined) | 219 to 222
31 | CC(C)N1CCN(c2ccc(Nc3cc(-c4ccc5c(CCO)cn(C)c5c4)c(Cl)n4ccnc34)nc2)CC1 | 181
32 | CONC(=O)Nc1ccc(-c2sc3c(c2CN(C)C(C)c2ccccc2)c(=O)n(-c2ccccc2)c(=O)n3Cc2c(F)cccc2F)cc1 (centres undefined) | 191 to 192
33 | COc1ccc2c(c1)CCC1CCNC(=O)C(CSC)=C21 (centres undefined) | 182 to 184
34 | CN(C)CCCNc1nc2cc(Cl)c(Cl)cc2nc1-c1ccccn1 | 59 to 61
35 | FC1(F)N=c2cc3c(cc2=N1)OC(Br)O3 | 160 to 164
36 | O=C(OCC1CCCCC1)c1ncn2c1[C@@H]1CCCN1C(=O)c1c(Cl)cccc1-2 | 123 to 124
37 | O=C(O)c1cccc2c1C(=O)c1ccccc1S2(=O)=O | 269 to 271
38 | O=C(O)C1CSC(c2ccccc2OCCCCO[N+](=O)[O-])N1 (centres undefined) | 108 to 110
39 | COC(=O)C(C)(C)CCCCCOc1ccc(N2C(=O)c3ccccc3C2=O)cc1 | 82 to 83
40 | CN1CCC(OC(c2ccccc2)c2nc3cc(Cl)c(Cl)cc3[nH]2)CC1 (centres undefined) | 221
41 | CNCC1Cc2cc(OC)cc(-c3cc(OC)ccc3OC)c2O1 (centres undefined) | 144 to 145
42 | CC#Cc1c(-c2ccc(S(C)(=O)=O)cc2)cnn(-c2ccc(F)c(F)c2)c1=O | 149 to 150
43 | CCc1cccc(C)c1CNc1cc(Br)cc2c1nc(CO)n2C | 206 to 208
44 | CC(C)(C)OC(=O)CN(Cc1ccccn1)c1cc(C(F)(F)F)c(Br)c(C(F)(F)F)c1 | 77 to 78
45 | Ic1ccc(-c2cc[nH]c2)cc1 | 164 to 165
46 | Cn1nc(-c2cccc(-n3ncc4cc(C(C)(C)C)cc(F)c4c3=O)c2CO)cc(Nc2cnc(CNC3CCC3)cn2)c1=O | 163 to 167
47 | Cc1nc(N2CCC(NCCC(F)(F)F)C2=O)sc1C(=O)NCc1ccc(F)cc1 (centres undefined) | 142 to 143
48 | CCc1c(OC)nc2nc(-c3nc(C)no3)cn2c1C | 204 to 205
49 | COC(=O)CCCC#Cc1cc(Cl)ccc1NS(=O)(=O)c1ccc2sc(C)nc2c1 | 68 to 72
50 | CC12CCC3C(CC=C4CC(O)CCC43C)C1CC=C2Br (centres undefined) | 162 to 164

Row | SMILES | melting point [°C]
51 | CCOC(=O)CCCCSc1nnc(S)s1 | 53
52 | Cc1nsc(Br)c1S(=O)(=O)NC(C)(C)C | 118 to 123
53 | COc1cc2c(cc1OC)CN(C(=O)Cc1ccc([N+](=O)[O-])cc1)CC2 | 110 to 111
54 | Cc1cc(C(N)=O)ncc1C(c1c(F)ccc(F)c1F)S(=O)(=O)CCC(F)F (centres undefined) | 192
55 | O=C1NC(=O)C(=Cc2cccc(OCc3ccccc3)c2)S1 | 233 to 235
56 | CSc1nc(C)c(Cc2ccccc2)c(=O)[nH]1 | 220 to 222
57 | S=C=Nc1ccc(Cl)c(Cl)c1 | 111 to 113
58 | CCOC(=O)C1=C(C)NC(=S)N(C(=O)OCC)C1c1ccccc1C (centres undefined) | 112 to 114
59 | COc1ccc(N2C(=O)C(O[Si](C(C)C)(C(C)C)C(C)C)C2c2ccc(F)cc2)cc1 (centres undefined) | 121 to 122
60 | COC(=O)Cc1ccc(-c2ccc(F)cc2F)c(F)c1 | 74 to 77
61 | O=C(O)Cc1ccc(OCCNC(=O)C2Cc3ccccc3N2S(=O)(=O)c2ccc(-c3cc(Cl)ccc3Cl)cc2)cc1 (centres undefined) | 80 to 86
62 | NC(=O)c1ccc(CCCNCC(O)c2ccccc2)s1 (centres undefined) | 94 to 96
63 | OCC1OC(OC2C(CO)OC(CO)C2O)C(O)C(O)C1O (centres undefined) | 162 to 164
64 | CC(C)c1cccc(C(C)C)c1NC(=O)CSCCCCCCCCCCCCN1CCN(c2ccccc2)CC1 | 76.5 to 77.5
65 | c1ccc(-c2nccn3cnnc23)cc1 | 238 to 239
66 | COC(=O)Cc1ccc(CNC(=O)C2Cc3ccccc3N2S(=O)(=O)c2ccc(-c3cccc(C)c3)cc2)cc1 (centres undefined) | 66 to 68
67 | NC(=O)C(OC(=O)c1ccccc1Cl)(C(N)=O)c1ccc(Cl)c(Cl)c1 | 220
68 | CC[C@@]12CCCN1[C@@H](C(Cl)(Cl)Cl)OC2=O | 76 to 77
69 | COc1ccc([C@H]2SC=C(c3ccccc3)N(CCN(C)C)C(=O)[C@H]2O)cc1 | 110 to 112
70 | CC1NC(=O)NN=C1c1ccc(N)c(Cl)c1 (centres undefined) | 229 to 231
71 | Cc1nc[nH]c1CSCCNC(=N)NCC(C)SCc1[nH]cnc1C (centres undefined) | 173 to 175
72 | Clc1cc(N2CCNCC2)c(Cl)nn1 | 111 to 115
73 | Nc1ncc(-c2cccc3ccc(Br)cc23)o1 | 189 to 190
74 | COC(=O)c1ccc(S(C)(=O)=O)c(CC#N)c1Cl | 151 to 155
75 | COc1ccc(OCC(F)(F)F)cc1N1CCN(CCCNC(=O)c2c(-c3ccccc3)noc2C)CC1 | 125

Row | SMILES | melting point [°C]
76 | O=C(Nc1ccccn1)c1cnc2c(c1O)CCCC2 | > 300
77 | CCNC(=O)N1CC(Oc2ccc(C(F)(F)F)cc2)C1 | 94 to 96
78 | CC1CCCN1CCCN1C(=C(C#N)C#N)N(CCN2CCCCC2)c2ccccc21 (centres undefined) | 85 to 86
79 | O=C(Nc1ccc(SC(F)(F)F)cc1)c1cc(S(=O)(=O)c2ccccc2)c2ccccc2c1O | 271 to 272
80 | CC(C)(C)OC(=O)NCC(O)CN (centres undefined) | 77 to 79
81 | O=c1n(CCN2CCN(c3ccc4cc[nH]c4c3)CC2)c2ccccc2n1C1=CCCCC1 | 171 to 173
82 | CN(Cc1ccccc1)C(=O)c1cnc2c3c(c(F)cc2c1)C(=O)C(C#N)C=N3 (centres undefined) | 267 to 269
83 | CCCN1c2ccccc2N(C)C(=O)c2cccnc21 | 96 to 98
84 | Cc1ccc(C)c(Sc2ccc(C#N)cc2S(=O)(=O)N2CCOCC2)c1 | 181 to 184
85 | Cc1c(O)cc2c(c1C)CCC2c1c[nH]cn1 (centres undefined) | 198 to 202
86 | C=Cc1cc(CNC(=O)NCc2ccc(C(C)(C)C)cc2)cc(C)c1NS(C)(=O)=O | 105 to 107
87 | COc1cc2c(cc1OCc1ccccc1)CCN(C(=O)c1cccc(C#N)c1)C2=O | 195 to 196
88 | Cc1nc(N2CCN(Cc3ccc(C(F)(F)F)cc3)C2=O)sc1Br | 107 to 108
89 | COCn1ccnc1C(O)(c1ccc(F)cc1)c1ccc(Cl)cc1Cl (centres undefined) | 179
90 | COc1ccc(CC[C@H](N)C(=O)O)cc1F | 164 to 167
91 | CCC(C)COc1ccc(-c2ccc(O)cc2)cc1C#N (centres undefined) | 181
92 | COCCOc1cc2nncc(Oc3cc(O)c(C)cc3F)c2cc1OC | 267 to 273
93 | CC(C)C(c1cncnc1C(F)(F)F)N(C)C(=O)Cc1ccccc1 (centres undefined) | 106 to 109
94 | CCOC(=O)c1cnoc1-c1cccc(OC)c1 | 85 to 87
95 | COC(=O)NC(=O)NS(=O)(=O)c1ccc(Cl)cc1 | 174 to 175
96 | CCCNS(=O)(=O)c1cc2cc(P(=O)(OCC)OCC)c(=O)[nH]c2cc1Cl | > 300
97 | Cc1c(Cc2ccc(C(C)C)cc2)c2c(c(C)c1NC(=O)CC(C)(C)C)C(O)C(C)(C)O2 (centres undefined) | 244 to 245
98 | CCCCCCCCCCCCCCCCNc1ccc(C(=O)NS(=O)(=O)c2ccccc2)cc1 | 136 to 138
99 | COC1CC2(C)C(CCC3C4CCC(C(=O)CBr)C4(C)CC(=O)C32)CC1O (centres undefined) | 185 to 188
